≈ marks a conversion by molar mass, not a printed value. Like-named read-outs stand apart in the source and are kept apart here.
Key:
[1] = tested on: C. neoformans var. grubii; assay: microbe, parasite or virus in culture
Description: The MICs of the yeast strains for PMB, PME, and octapeptin C4 and its derivatives were determined in accordance with CLSI M27-A2 guidelines using YNB (Becton Dickinson, USA) medium supplemented with 10 mM ammonium sulfate and 2% glucose, a final inoculum concentration of 1.5 × 10^3 to 2.0 × 10^3 cells/ml, and incubation at 35°C for 72 h ([39]). […] The MICs for PMB, PME, and octapeptin C4 for A. fumigatus were determined in accordance with the CLSI M38-A2 guidelines ([40]) using synthetic RPMI 1640 medium (with glutamine, without bicarbonate and with phenol red; Life Technologies, USA). The final inoculum concentration was 0.4 × 10^4 to 5 × 10^4 cells/ml, with incubation at 35°C for 48 h. […] All assays were completed in triplicate. Fluconazole was used as a positive control where the MIC was determined at both 50% growth (in accordance with CLSI M27-A2 guidelines) and when there was a “no visible growth” reading. […]

[2] = tested on: C. neoformans var. gattii; assay: microbe, parasite or virus in culture; settings: Cryptococcus neoformans
Description: The MICs of the yeast strains for PMB, PME, and octapeptin C4 and its derivatives were determined in accordance with CLSI M27-A2 guidelines using YNB (Becton Dickinson, USA) medium supplemented with 10 mM ammonium sulfate and 2% glucose, a final inoculum concentration of 1.5 × 10^3 to 2.0 × 10^3 cells/ml, and incubation at 35°C for 72 h ([39]). […] The MICs for PMB, PME, and octapeptin C4 for A. fumigatus were determined in accordance with the CLSI M38-A2 guidelines ([40]) using synthetic RPMI 1640 medium (with glutamine, without bicarbonate and with phenol red; Life Technologies, USA). The final inoculum concentration was 0.4 × 10^4 to 5 × 10^4 cells/ml, with incubation at 35°C for 48 h. […] All assays were completed in triplicate. Fluconazole was used as a positive control where the MIC was determined at both 50% growth (in accordance with CLSI M27-A2 guidelines) and when there was a “no visible growth” reading.

OC(Cn1cncn1)(Cn1cncn1)c1ccc(F)cc1F [Fluconazole, fluconazole]
MIC ([1]; Cryptococcus neoformans, read-out: MIC-2, strain 486 (USA), 50% fungal growth): 12.5 µg/mL (≈ 40.8 µM) | MIC ([1]; Cryptococcus neoformans, read-out: MIC-2, strain 488 (AIDS+, pre-HAART USA), 50% fungal growth): 12.5 µg/mL (≈ 40.8 µM) | MIC ([1]; Cryptococcus neoformans, read-out: MIC-2, strain 490 (USA), 50% fungal growth): 6.25 µg/mL (≈ 20.4 µM) | MIC ([1]; Cryptococcus neoformans, read-out: MIC-2, strain 496 (USA), 50% fungal growth): 6.25 µg/mL (≈ 20.4 µM) | MIC ([1]; Cryptococcus neoformans, read-out: MIC-2, strain 500 (USA), 50% fungal growth): 6.5 µg/mL (≈ 21.2 µM) | MIC ([1]; Cryptococcus neoformans, read-out: MIC-2, strain 502 (ARR3+ USA), 50% fungal growth): 6.5 µg/mL (≈ 21.2 µM) | MIC ([1]; Cryptococcus neoformans, read-out: MIC-2, strain 505 (India), 50% fungal growth): 6.25 µg/mL (≈ 20.4 µM) | MIC ([1]; Cryptococcus neoformans, read-out: MIC-2, strain 507 (India), 50% fungal growth): 6.25 µg/mL (≈ 20.4 µM) | MIC ([1]; Cryptococcus neoformans, read-out: MIC-2, strain 510 (VNII India), 50% fungal growth): 1.56 µg/mL (≈ 5.09 µM) | MIC ([1]; Cryptococcus neoformans, read-out: MIC-2, strain 512 (India), 50% fungal growth): 6.25 µg/mL (≈ 20.4 µM) | MIC ([1]; Cryptococcus neoformans, read-out: MIC-2, strain 516 (India), 50% fungal growth): 6.25 µg/mL (≈ 20.4 µM) | MIC ([1]; Cryptococcus neoformans, read-out: MIC-2, strain 518 (VNI India), 50% fungal growth): 6.25 µg/mL (≈ 20.4 µM) | MIC ([1]; Cryptococcus neoformans, read-out: MIC-2, strain 522 (India), 50% fungal growth): 6.25 µg/mL (≈ 20.4 µM) | MIC ([1]; Cryptococcus neoformans, read-out: MIC-2, strain 525 (India), 50% fungal growth): 12.5 µg/mL (≈ 40.8 µM) | MIC ([1]; Cryptococcus neoformans, read-out: MIC-2, strain 1188 (Japan lung), 50% fungal growth): 3.13 µg/mL (≈ 10.2 µM) | MIC ([1]; Cryptococcus neoformans, read-out: MIC-2, strain 1194 (Italy), 50% fungal growth): 1.56 µg/mL (≈ 5.09 µM) | MIC ([1]; Cryptococcus neoformans, read-out: MIC-2, strain 1196 (Botswana CSF/AIDS), 50% fungal growth): 12.5 µg/mL (≈ 40.8 µM) | MIC ([1]; Cryptococcus neoformans, read-out: MIC-2, strain 1197 (Botswana CSF/AIDS), 50% fungal growth): 3.13 µg/mL (≈ 10.2 µM) | MIC ([1]; Cryptococcus neoformans, read-out: MIC-2, strain 1199 (Uganda CSF/HIV+ VNII), 50% fungal growth): 3.13 µg/mL (≈ 10.2 µM) | MIC ([1]; Cryptococcus neoformans, read-out: MIC-2, strain H99O (lab strain), 50% fungal growth): 6.25 µg/mL (≈ 20.4 µM) | MIC ([1]; Cryptococcus neoformans, read-out: MIC-2, strain H99 XL (lab strain), 50% fungal growth): 3.13 µg/mL (≈ 10.2 µM) | MIC ([1]; Cryptococcus neoformans, read-out: MIC-2, strain H99 stud (lab strain), 50% fungal growth): 3.13 µg/mL (≈ 10.2 µM) | MIC ([1]; Cryptococcus neoformans, strain 486 (USA), no visible growth): 25 µg/mL (≈ 81.6 µM) | MIC ([1]; Cryptococcus neoformans, strain 488 (AIDS+, pre-HAART USA), no visible growth): 25 µg/mL (≈ 81.6 µM) | MIC ([1]; Cryptococcus neoformans, strain 490 (USA), no visible growth): 12.5 µg/mL (≈ 40.8 µM) | MIC ([1]; Cryptococcus neoformans, strain 496 (USA), no visible growth): 12.5 µg/mL (≈ 40.8 µM) | MIC ([1]; Cryptococcus neoformans, strain 500 (USA), no visible growth): 12.5 µg/mL (≈ 40.8 µM) | MIC ([1]; Cryptococcus neoformans, strain 502 (ARR3+ USA), no visible growth): 12.5 µg/mL (≈ 40.8 µM) | MIC ([1]; Cryptococcus neoformans, strain 505 (India), no visible growth): 6.25 µg/mL (≈ 20.4 µM) | MIC ([1]; Cryptococcus neoformans, strain 507 (India), no visible growth): 12.5 µg/mL (≈ 40.8 µM) | MIC ([1]; Cryptococcus neoformans, strain 510 (VNII India), no visible growth): 3.13 µg/mL (≈ 10.2 µM) | MIC ([1]; Cryptococcus neoformans, strain 512 (India), no visible growth): 12.5 µg/mL (≈ 40.8 µM) | MIC ([1]; Cryptococcus neoformans, strain 516 (India), no visible growth): 12.5 µg/mL (≈ 40.8 µM) | MIC ([1]; Cryptococcus neoformans, strain 518 (VNI India), no visible growth): 12.5 µg/mL (≈ 40.8 µM) | MIC ([1]; Cryptococcus neoformans, strain 522 (India), no visible growth): 12.5 µg/mL (≈ 40.8 µM) | MIC ([1]; Cryptococcus neoformans, strain 525 (India), no visible growth): 25 µg/mL (≈ 81.6 µM) | MIC ([1]; Cryptococcus neoformans, strain 1188 (Japan lung), no visible growth): 12.5 µg/mL (≈ 40.8 µM) | MIC ([1]; Cryptococcus neoformans, strain 1194 (Italy), no visible growth): 6.25 µg/mL (≈ 20.4 µM) | MIC ([1]; Cryptococcus neoformans, strain 1196 (Botswana CSF/AIDS), no visible growth): 25 µg/mL (≈ 81.6 µM) | MIC ([1]; Cryptococcus neoformans, strain 1197 (Botswana CSF/AIDS), no visible growth): 12.5 µg/mL (≈ 40.8 µM) | MIC ([1]; Cryptococcus neoformans, strain 1199 (Uganda CSF/HIV+ VNII), no visible growth): 12.5 µg/mL (≈ 40.8 µM) | MIC ([1]; Cryptococcus neoformans, strain H99O (lab strain), no visible growth): 12.5 µg/mL (≈ 40.8 µM) | MIC ([1]; Cryptococcus neoformans, strain H99 XL (lab strain), no visible growth): 6.25 µg/mL (≈ 20.4 µM) | MIC ([1]; Cryptococcus neoformans, strain H99 stud (lab strain), no visible growth): 6.25 µg/mL (≈ 20.4 µM) | MIC ([1]; read-out: MIC-2, strain 1189 (USA BAL/HIV), 50% fungal growth): 12.5 µg/mL (≈ 40.8 µM) | MIC ([1]; strain 1189 (USA BAL/HIV), no visible growth): 25 µg/mL (≈ 81.6 µM) | MIC ([2]; ATCC24066, read-out: MIC-2, strain ATCC 24066 (NIH 18), 50% fungal growth): 1.56 µg/mL (≈ 5.09 µM) | MIC ([2]; ATCC24066, strain ATCC 24066 (NIH 18), no visible growth): 3.13 µg/mL (≈ 10.2 µM) | MIC ([2]; ATCC32269, read-out: MIC-2, strain ATCC 32269, 50% fungal growth): 0.78 µg/mL (≈ 2.55 µM) | MIC ([2]; ATCC32269, strain ATCC 32269, no visible growth): 1.56 µg/mL (≈ 5.09 µM) | MIC ([2]; ATCC32608, read-out: MIC-2, strain ATCC 32608 (NIH 191), 50% fungal growth): 0.39 µg/mL (≈ 1.27 µM) | MIC ([2]; ATCC32608, strain ATCC 32608 (NIH 191), no visible growth): 0.78 µg/mL (≈ 2.55 µM) | MIC ([2]; ATCC32609, read-out: MIC-2, strain ATCC 32609 (NIH444), 50% fungal growth): 3.13 µg/mL (≈ 10.2 µM) | MIC ([2]; ATCC32609, strain ATCC 32609 (NIH444), no visible growth): 6.25 µg/mL (≈ 20.4 µM) | MIC ([2]; ATCC34878, read-out: MIC-2, strain ATCC 34878, 50% fungal growth): 3.13 µg/mL (≈ 10.2 µM) | MIC ([2]; ATCC34878, strain ATCC 34878, no visible growth): 6.25 µg/mL (≈ 20.4 µM) | MIC ([2]; ATCC34882, read-out: MIC-2, strain ATCC 34882, 50% fungal growth): 1.56 µg/mL (≈ 5.09 µM)

Reference: article PMC5786788, “Antimicrobial Octapeptin C4 Analogues Active against Cryptococcus Species” (Antimicrobial Agents and Chemotherapy, 2018)
